Where two headings read alike, the source gives them in different places.
Columns and labels:
[1] = system: MM.1S cells; assay: In vitro cytotoxic potency in MM.1S cell viability assay (CellTiter-Glo); assay type: cell-based, human; details: Homo sapiens, MM1.S, 72 h
Description: Methods: MM.1S Cells were cultivated in RPMI medium 1640 (IX) supplemented with 10 μg/μL penicillin/streptomycin, 10% heat inactivated FBS, 0.1 mM Sodium Pyruvate, 1×MEM NEAA (ThermoFisher) and 1 mM HEPES. Cells were grown to reach log phase before being exposed to the test compounds.
(§1) Test compounds (Example compounds 1 to 36, 38 to 41 and 45 to 48) and comparative compounds (bendamustine, busulfan, melphalan, chlorambucil and 4-hydroperoxy cyclophosphamide) were dissolved in 100% DMSO and added to a 384 assay plate. Additional DMSO was added to maintain the same final DMSO concentration (0.2%) in all wells. 25 μL cell suspension with a concentration of 100000 cells/mL was added to each well. The cells were cultured in a CO2 incubator at 37° C. for 72 h. Plates were equilibrated to room temperature for 30 minutes before adding 20 μL CellTiter-Glo® 2.0 (Promega) reagent to all wells. The plate was then allowed to stabilize for 20 minutes before recording the luminescence (emission filter 700 nm) in an Envision plate reader.
(§2) All cells were cultivated in RPMI medium 1640 (IX). All media was supplemented with 10 μg/μl penicillin/streptomycin, 10% heat inactivated FBS, 0.1 mM Sodium Pyruvate, 1×MEM NEAA (ThermoFisher) and 1 mM HEPES. The DERL-2 cells had higher FBS (20%) and 40 ng/mL IL-2 was added. hPBMCs were thawed and allowed to acclimatise overnight and then stimulated with 10 μg/mL PHA-M and 40 ng/mL IL-2 for 4 hours before being exposed to test compounds. All cells, except for hPBMCs, were grown to reach log phase before being exposed to the test compounds.
as §1, with “compounds” for “compounds (Example compounds 1 to 36, 38 to 41 and 45 to 48) and comparative compounds (bendamustine, busulfan, melphalan, chlorambucil and 4-hydroperoxy cyclophosphamide)”, “(Em” for “(emission”

[2] = system: AMO-1; assay: In vitro cytotoxicity, AMO-1 (Multiple Myeloma); assay type: cell-based; details: Homo sapiens, read-out: Cytotoxicity IC50, AMO-1
Description: as §2
as §1, with “compounds” for “compounds (Example compounds 1 to 36, 38 to 41 and 45 to 48) and comparative compounds (bendamustine, busulfan, melphalan, chlorambucil and 4-hydroperoxy cyclophosphamide)”, “(Em” for “(emission”

[3] = system: EJM; assay: In vitro cytotoxicity, EJM (Multiple Myeloma); assay type: cell-based; details: Homo sapiens, 72 h
Description: as §2
as §1, with “compounds” for “compounds (Example compounds 1 to 36, 38 to 41 and 45 to 48) and comparative compounds (bendamustine, busulfan, melphalan, chlorambucil and 4-hydroperoxy cyclophosphamide)”, “(Em” for “(emission”

[4] = system: KMS-12-BM; assay: In vitro cytotoxicity, KMS-12-BM (Multiple Myeloma); assay type: cell-based; details: Homo sapiens, 72 h
Description: as §2
as §1, with “compounds” for “compounds (Example compounds 1 to 36, 38 to 41 and 45 to 48) and comparative compounds (bendamustine, busulfan, melphalan, chlorambucil and 4-hydroperoxy cyclophosphamide)”, “(Em” for “(emission”

[5] = system: OPM-2; assay: In vitro cytotoxicity, OPM-2 (Multiple Myeloma); assay type: cell-based; details: Homo sapiens, read-out: Cytotoxicity IC50, OPM-2
Description: as §2
as §1, with “compounds” for “compounds (Example compounds 1 to 36, 38 to 41 and 45 to 48) and comparative compounds (bendamustine, busulfan, melphalan, chlorambucil and 4-hydroperoxy cyclophosphamide)”, “(Em” for “(emission”

[6] = system: RPMI-8226; assay: In vitro cytotoxicity, RPMI-8226 (Multiple Myeloma, resistant); assay type: cell-based; details: Homo sapiens, read-out: Cytotoxicity IC50, RPMI-8226
Description: as §2
as §1, with “compounds” for “compounds (Example compounds 1 to 36, 38 to 41 and 45 to 48) and comparative compounds (bendamustine, busulfan, melphalan, chlorambucil and 4-hydroperoxy cyclophosphamide)”, “(Em” for “(emission”

[7] = system: U266; assay: In vitro cytotoxicity, U266 (Multiple Myeloma); assay type: cell-based; details: Homo sapiens, read-out: Cytotoxicity IC50, U266
Description: as §2
as §1, with “compounds” for “compounds (Example compounds 1 to 36, 38 to 41 and 45 to 48) and comparative compounds (bendamustine, busulfan, melphalan, chlorambucil and 4-hydroperoxy cyclophosphamide)”, “(Em” for “(emission”

[8] = system: SC-1; assay: In vitro cytotoxicity, SC-1 (B cell Lymphoma); assay type: cell-based; details: Homo sapiens, read-out: Cytotoxicity IC50, SC-1
Description: as §2
as §1, with “compounds” for “compounds (Example compounds 1 to 36, 38 to 41 and 45 to 48) and comparative compounds (bendamustine, busulfan, melphalan, chlorambucil and 4-hydroperoxy cyclophosphamide)”, “(Em” for “(emission”

[9] = In vitro cytotoxicity, BJ fibroblasts (normal cells); assay type: cell-based; details: human, CellTiter-Glo 2.0
Description: as §2
as §1, with “compounds” for “compounds (Example compounds 1 to 36, 38 to 41 and 45 to 48) and comparative compounds (bendamustine, busulfan, melphalan, chlorambucil and 4-hydroperoxy cyclophosphamide)”, “(Em” for “(emission”

[10] = system: U937; assay: In vitro cytotoxicity, U937 (Histiocytic Lymphoma); assay type: cell-based; details: Homo sapiens, U-937; 72 h, CellTiter-Glo 2.0; read-out: Cytotoxicity IC50, U937
Description: as §2
as §1, with “compounds” for “compounds (Example compounds 1 to 36, 38 to 41 and 45 to 48) and comparative compounds (bendamustine, busulfan, melphalan, chlorambucil and 4-hydroperoxy cyclophosphamide)”, “(Em” for “(emission”

[11] = system: SK-MM-1; assay: In vitro cytotoxicity, SK-MM-1 (Plasma Cell Leukemia); assay type: cell-based; details: Homo sapiens; 72 h, CellTiter-Glo 2.0; read-out: Cytotoxicity IC50, SK-MM-1
Description: as §2
as §1, with “compounds” for “compounds (Example compounds 1 to 36, 38 to 41 and 45 to 48) and comparative compounds (bendamustine, busulfan, melphalan, chlorambucil and 4-hydroperoxy cyclophosphamide)”, “(Em” for “(emission”

[12] = system: DOHH-2; assay: In vitro cytotoxicity, DOHH-2 (B Cell Lymphoma); assay type: cell-based; details: Homo sapiens, DOHH-2; 72 h, CellTiter-Glo 2.0; read-out: Cytotoxicity IC50, DOHH-2
Description: as §2
as §1, with “compounds” for “compounds (Example compounds 1 to 36, 38 to 41 and 45 to 48) and comparative compounds (bendamustine, busulfan, melphalan, chlorambucil and 4-hydroperoxy cyclophosphamide)”, “(Em” for “(emission”

[13] = system: HG-3; assay: In vitro cytotoxicity, HG-3 (Chronic Lymphocytic Leukemia); assay type: cell-based; details: Homo sapiens, HG-3; 72 h, CellTiter-Glo 2.0; read-out: Cytotoxicity IC50, HG-3
Description: as §2
as §1, with “compounds” for “compounds (Example compounds 1 to 36, 38 to 41 and 45 to 48) and comparative compounds (bendamustine, busulfan, melphalan, chlorambucil and 4-hydroperoxy cyclophosphamide)”, “(Em” for “(emission”

[14] = system: SU-DHL-8; assay: In vitro cytotoxicity, SU-DHL-8 (B-cell non-Hodgkin Lymphoma); assay type: cell-based; details: Homo sapiens, SU-DHL-8; 72 h, CellTiter-Glo 2.0; read-out: Cytotoxicity IC50, SU-DHL-8
Description: as §2
as §1, with “compounds” for “compounds (Example compounds 1 to 36, 38 to 41 and 45 to 48) and comparative compounds (bendamustine, busulfan, melphalan, chlorambucil and 4-hydroperoxy cyclophosphamide)”, “(Em” for “(emission”

[15] = system: Toledo; assay: In vitro cytotoxicity, Toledo (Diffuse Large B Cell Lymphoma); assay type: cell-based; details: Homo sapiens, 72 h, CellTiter-Glo 2.0, read-out: Cytotoxicity IC50, Toledo
Description: as §2
as §1, with “compounds” for “compounds (Example compounds 1 to 36, 38 to 41 and 45 to 48) and comparative compounds (bendamustine, busulfan, melphalan, chlorambucil and 4-hydroperoxy cyclophosphamide)”, “(Em” for “(emission”

[16] = read-out: Cytotoxicity IC50, MM.1S
[17] = CellTiter-Glo 2.0, read-out: Cytotoxicity IC50, EJM
[18] = CellTiter-Glo 2.0, read-out: Cytotoxicity IC50, KMS-12-BM
[19] = RPMI-8226, 72 h, CellTiter-Glo 2.0

Structure (SMILES)	IC50 [1, 16] [nM]	IC50 ([1]; read-out: MM.1S IC50) [nM]	IC50 at 72 h [9] [nM]	IC50 ([2]; AMO1, 72 h, CellTiter-Glo 2.0) [nM]	IC50 [3, 17] [nM]	IC50 [4, 18] [nM]	IC50 ([5]; OPM-2, 72 h, CellTiter-Glo 2.0) [nM]	IC50 [6, 19] [nM]	IC50 ([7]; U-266, 72 h, CellTiter-Glo 2.0) [nM]	IC50 ([8]; SC-1, 72 h, CellTiter-Glo 2.0) [nM]	also measured
CCOC(=O)[C@H](CC(C)C)NC(=O)[C@@H](N)CCc1nc2cc(N(CCCl)CCCl)ccc2n1-c1ccccc1 [Example 13, Ethyl (2S)-2-[[(2S)-2-amino-4-[5-[bis(2-chloroethyl)amino]-1-phenyl-benzimidazol-2-yl]butanoyl]amino]-4-methyl-pentanoate]	49	49	> 2000								IC50 ([2]; AMO1, 72 h): 965 nM; IC50 ([3]; read-out: Cytotoxicity IC50, EJM): 356 nM; IC50 ([4]; read-out: Cytotoxicity IC50, KMS-12-BM): 137 nM; IC50 ([5]; OPM-2, 72 h): 2110 nM; IC50 ([6]; RPMI-8226, 72 h): 1720 nM; IC50 ([7]; U-266, 72 h): 400 nM; IC50 ([8]; SC-1, 72 h): 134 nM
CC(C)C[C@H](NC(=O)[C@@H](N)CCc1nc2cc(N(CCCl)CCCl)ccc2n1C)C(=O)N(C)C [Example 30, (2S)-2-[[(2S)-2-Amino-4-[5-[bis(2-chloroethyl)amino]-1-methyl-benzimidazol-2-yl]butanoyl]amino]-N,N,4-trimethyl-pentanamide]	39.7	39.7	> 2000	653	173	45	322	492	131	53.7	
CCOC(=O)[C@H](Cc1ccc(F)cc1)NC(=O)[C@H](CCc1nc2cc(N(CCCl)CCCl)ccc2n1C)NC(C)=O [Example 34, Ethyl (2S)-2-[[(2S)-2-acetamido-4-[5-[bis(2-chloroethyl)amino]-1-methyl-benzimidazol-2-yl]butanoyl]amino]-3-(4-fluorophenyl)propanoate]	68.3	68.3	> 2000	758	637	105	961	1450	266	1060	IC50 [10]: 397 nM; IC50 [11]: 604 nM; IC50 [12]: 543 nM; IC50 [13]: 888 nM; IC50 [14]: 202 nM; IC50 [15]: 328 nM

From US20240316059A1, “PEPTIDE DRUG CONJUGATES” (Oncopeptides AB, priority 2021, published 2024)
